Reference: patent publication US9133206B2, “Benzodiazepine and pyridodiazepine derivatives” (AbbVie Inc., priority 2010, dated 2015)

Test system: SK-N-SH human neuroblastoma cells
Test: Serum Deprivation/JC-1 Mitochondrial Membrane Potential (MMP) Assay
Assay type: cell-based
Details: Homo sapiens, SK-N-SH; for EC50: 18 h, serum deprivation ~18 hours, JC-1 ratio normalized to peak value for 10 μM dimebolin, single curve fit to mean data of n=2-3; for Emax: percent maximal intensity in JC-1 ratio normalized to peak value for 10 μM dimebolin, serum deprivation, read-out: JC-1 max %
From the text: The method also involves a high-throughput assay using serum-deprivation conditions involving neuronal cells to screen for compounds that increase or preserve mitochondrial membrane potential. Such compounds can be found to aid in rescuing cells from energy-depletion that occurs in several neurodegenerative states. Mitochondrial-mediated apoptosis occurs in response to a wide range of apoptotic stimuli including p^53, c-myc, DNA damage, prooxidants, chemotherapeutic agents, serum starvation and death receptor activation (Lin C—H., Lu Y-Z., Cheng, F-C., Chu L-F. and Hsuch C-M. Bax-regulated mitochondrial-mediated apoptosis is responsible for the in vitro ischemia induced neuronal cell death of Sprague Dawley rat. Neuroscience Lett. 2005, 387, 22-27).
Thus, this stress inducer, serum deprivation, combined with monitoring changes in the mitochondrial membrane potential in a 96-well format allows for the establishment of an efficient high-throughput screen (HTS) in order to evaluate the ability of compounds to increase mitochondrial membrane potential in the presence of stress and preserve health of the cell. Exemplary procedures for conducting such high-throughput assay are provided below.
SK-N-SH human neuroblastoma cells obtained from American Type Culture Collection (Rockville, Md.) were maintained in the log phase of growth in Minimal Essential Media (MEM), 10% heat inactivated fetal calf serum and 100 units/mL antibiotic-antimycotic (AA). Cells were cultured and maintained in a humidified incubator at 37° C. under 5% CO2 and 95% air. Cells were trypsinized (0.25%) and subcultured every 3 days and used from 15-18 passages. All cell culture supplies were obtained from Invitrogen (Carlsbad, Calif.).
SK-N-SH cells were plated 2-3 days in advance at a concentration of 50,000 cells/well onto collagen coated black-walled 96 well plates (Becton-Dickinson, Bedford, Mass.) in a total volume of […]. On day of experimental treatment, the media containing serum was aspirated from each well and rinsed once with MEM/1% AA without serum. The cells then were incubated overnight in 100 μL of MEM/1% AA (no serum) with and without dimebolin or novel chemical entities overnight for ˜18 hours. The following day, JC-1 dye (5,5′,6,6′-tetrachloro-1,1′,3,3′-tetraethylbenzimidazolcarbocyanide) was diluted 1:10 into MEM media according to the JC-1 Mitochondrial Membrane Potential Assay Kit: (Cayman Chemical Company, Ann Arbor, Mich.) and then 10 μL of the JC-1 dye solution was added to each well. The plates were centrifuged for 5 minutes at 400×g at room temperature followed by 40 minute incubation at 37° C. The plates were washed twice with 200 μL of provided Assay Buffer followed an addition of 100 μL of Assay Buffer to each well. The plates were read with an excitation and emission of 560 nm and 595 nM for red fluorescence and with an excitation and emission of 485 nm and 535 nM for green fluorescence to determine the final JC-1 value taking the red to green fluorescence ratio. This assay is based on change in mitochondrial membrane potential (MMP) using this lipophilic cationic dye, JC-1, by monitoring the changes in the ratio of red to green fluorescence as the MMP depolarizes. This change in MMP reflects the health of the cell with healthy, viable cells have a high JC-1 ratio and high MMP whereas apoptotic, unhealthy cells have a low JC-1 ratio or low MMP.
For the ability of compounds to reverse the stress due to serum deprivation and increase the JC-1 ratio, the percent maximal intensity in JC-1 ratio was normalized to that induced by the peak value for 10 μM dimebolin and plotted against the compound concentration to calculate EC50 values and to control for plate-to-plate variability. Concentration-response data were analyzed using GraphPad Prism (San Diego, Calif.); the EC50 values were derived from a single curve fit to the mean data of n=2-3, in duplicates. […]

| SMILES | EC50 | Emax |
| --- | --- | --- |
| O=C(Cc1ccc(Cl)cc1)N1CCC2CN(Cc3ccccc3)CCN2c2ncccc21 (stereo not shown) [Example 53, 1-(9-benzyl-7,7a,8,9,10,11-hexahydropyrazino[1,2-d]pyrido[3,2-b][1,4]diazepin-5(6H)-yl)-2-(4-chlorophenyl)ethanone] | 9.88 µM | 210% |
| Clc1ccc(CCN2CCC3CN(Cc4ccccc4)CCN3c3ncccc32)cc1 (stereo not shown) [Example 54, 9-benzyl-5-[2-(4-chlorophenyl)ethyl]-5,6,7,7a,8,9,10,11-octahydropyrazino[1,2-d]pyrido[3,2-b][1,4]diazepine] | 3.59 µM | 177% |
| CN1CCC2CN(Cc3ccccc3)CCN2c2ncccc21 (stereo not shown) [Example 55, 9-benzyl-5-methyl-5,6,7,7a,8,9,10,11-octahydropyrazino[1,2-d]pyrido[3,2-b][1,4]diazepine] | 9.95 µM | 99% |
| Fc1ccc(CN2CCN3c4ccccc4CN(Cc4ccc(Br)cc4)CC3C2)cc1 (stereo not shown) [Example 56, 6-(4-bromobenzyl)-3-(4-fluorobenzyl)-1,2,3,4,4a,5,6,7-octahydropyrazino[1,2-a][1,4]benzodiazepine] | 5.17 µM | 161% |
| CN1CCN2c3ccccc3CN(Cc3ccc(Br)cc3)CC2C1 (stereo not shown) [Example 57, 6-(4-bromobenzyl)-3-methyl-1,2,3,4,4a,5,6,7-octahydropyrazino[1,2-a][1,4]benzodiazepine] | 10.2 µM | 167% |
| CC1(C)C(C(=O)N2CCC3CN(Cc4ccccc4)CCN3c3ncccc32)C1(C)C (stereo not shown) [Example 58, (9-benzyl-7,7a,8,9,10,11-hexahydropyrazino[1,2-d]pyrido[3,2-b][1,4]diazepin-5(6H)-yl)(2,2,3,3-tetramethylcyclopropyl)methanone] | 3.65 µM | 215% |
| CC1(C)C(CN2CCC3CN(Cc4ccccc4)CCN3c3ncccc32)C1(C)C (stereo not shown) [Example 59, 9-benzyl-5-[(2,2,3,3-tetramethylcyclopropyl)methyl]-5,6,7,7a,8,9,10,11-octahydropyrazino[1,2-d]pyrido[3,2-b][1,4]diazepine] | 3.4 µM | 306% |
| O=C(Cc1ccc(Cl)nc1)N1Cc2ccccc2N2CCN(Cc3ccccc3)CC2C1 (stereo not shown) [Example 60, 1-(3-benzyl-1,2,3,4,4a,5-hexahydropyrazino[1,2-a][1,4]benzodiazepin-6(7H)-yl)-2-(6-chloropyridin-3-yl)ethanone] | 4.14 µM | 224% |
| Clc1ccc(CCN2Cc3ccccc3N3CCN(Cc4ccccc4)CC3C2)cn1 (stereo not shown) [Example 63, 3-benzyl-6-[2-(6-chloropyridin-3-yl)ethyl]-1,2,3,4,4a,5,6,7-octahydropyrazino[1,2-a][1,4]benzodiazepine] | 1.95 µM | 173% |
| Fc1ccc(CN2CCN3c4ncccc4N(CC4CC4)CCC3C2)cc1 (stereo not shown) [Example 64, 5-(cyclopropylmethyl)-9-(4-fluorobenzyl)-5,6,7,7a,8,9,10,11-octahydropyrazino[1,2-d]pyrido[3,2-b][1,4]diazepine] | 5.66 µM | 139% |
| Fc1ccc(CN2CCN3c4ncccc4N(CC4CCC4)CCC3C2)cc1 (stereo not shown) [Example 65, 5-(cyclobutylmethyl)-9-(4-fluorobenzyl)-5,6,7,7a,8,9,10,11-octahydropyrazino[1,2-d]pyrido[3,2-b][1,4]diazepine] | 4.59 µM | 133% |
| CC(C)(C)OC(=O)N1CCN2c3ccccc3CN(Cc3ccc(Br)cc3)CC2C1 (stereo not shown) [Example 66, tert-butyl 6-(4-bromobenzyl)-1,2,4a,5,6,7-hexahydropyrazino[1,2-a][1,4]benzodiazepine-3(4H)-carboxylate] | 4.84 µM | 192% |
| CC(C)(C)OC(=O)N1CCN2c3ccccc3CN(Cc3ccc(Br)cc3)C(=O)C2C1 (stereo not shown) [Example 67, tert-butyl 6-(4-bromobenzyl)-5-oxo-1,2,4a,5,6,7-hexahydropyrazino[1,2-a][1,4]benzodiazepine-3(4H)-carboxylate] | 5.06 µM | 215% |
| Fc1ccc(CN2CCN3c4ncccc4N(C[C@@H]4CCN4)CCC3C2)cc1 (stereo partly drawn) [Example 68, 5-[(2S)-azetidin-2-ylmethyl]-9-(4-fluorobenzyl)-5,6,7,7a,8,9,10,11-octahydropyrazino[1,2-d]pyrido[3,2-b][1,4]diazepine] | 8.64 µM | 157% |
| Fc1ccc(CN2CCN3c4ncccc4N(CC4CNC4)CCC3C2)cc1 (stereo not shown) [Example 69, 5-(azetidin-3-ylmethyl)-9-(4-fluorobenzyl)-5,6,7,7a,8,9,10,11-octahydropyrazino[1,2-d]pyrido[3,2-b][1,4]diazepine] | 10.3 µM | 154% |
| O=C1C2CNCCN2c2ccccc2CN1Cc1ccc(Br)cc1 (stereo not shown) [Example 70, 6-(4-bromobenzyl)-2,3,4,4a,6,7-hexahydropyrazino[1,2-a][1,4]benzodiazepin-5(1H)-one] | 9.61 µM | 156% |
| Brc1ccc(CN2Cc3ccccc3N3CCNCC3C2)cc1 (stereo not shown) [Example 71, 6-(4-bromobenzyl)-1,2,3,4,4a,5,6,7-octahydropyrazino[1,2-a][1,4]benzodiazepine] | 7.85 µM | 105% |
| O=C(C1CC1)N1CCC2CNCCN2c2ncccc21 (stereo not shown) [Example 72, cyclopropyl(7,7a,8,9,10,11-hexahydropyrazino[1,2-d]pyrido[3,2-b][1,4]diazepin-5(6H)-yl)methanone] | 13.3 µM | 98% |
| O=C1C2CN(Cc3ccc(F)cc3)CCN2c2ccccc2CN1Cc1ccc(Br)cc1 (stereo not shown) [Example 73, 6-(4-bromobenzyl)-3-(4-fluorobenzyl)-2,3,4,4a,6,7-hexahydropyrazino[1,2-a][1,4]benzodiazepin-5(1H)-one] | 4.27 µM | 229% |
| O=C(c1cccnc1)N1CCN2c3ncccc3N(CC3CC3)CCC2C1 (stereo not shown) [Example 74, [5-(cyclopropylmethyl)-6,7,7a,8,10,11-hexahydropyrazino[1,2-d]pyrido[3,2-b][1,4]diazepin-9(5H)-yl](pyridin-3-yl)methanone] | 7.82 µM | 109% |
| O=C(N1CCOCC1)N1Cc2ccccc2N2CCNCC2C1 (stereo not shown) [Example 75, 1,2,3,4,4a,5-hexahydropyrazino[1,2-a][1,4]benzodiazepin-6(7H)-yl(morpholin-4-yl)methanone] | > 10 µM | 48% |
| O=C(N1CCOCC1)N1Cc2ccccc2N2CCN(Cc3ccc(F)cc3)CC2C1 (stereo not shown) [Example 76, [3-(4-fluorobenzyl)-1,2,3,4,4a,5-hexahydropyrazino[1,2-a][1,4]benzodiazepin-6(7H)-yl](morpholin-4-yl)methanone] | 7.06 µM | 127% |
| CN1CCN2c3ccccc3CN(C(=O)N3CCOCC3)CC2C1 (stereo not shown) [Example 77, (3-methyl-1,2,3,4,4a,5-hexahydropyrazino[1,2-a][1,4]benzodiazepin-6(7H)-yl)(morpholin-4-yl)methanone] | 10.2 µM | 57% |
| O=C(Cn1ncccc1=O)N1CCC2CN(Cc3ccccc3)CCN2c2ccccc21 (stereo not shown) [Example 78, 2-[2-(3-benzyl-2,3,4,4a,5,6-hexahydropyrazino[1,2-a][1,5]benzodiazepin-7(1H)-yl)-2-oxoethyl]pyridazin-3(2H)-one] | 8.55 µM | 143% |
| O=C(c1ccccc1)N1CCN2c3ccccc3CN(C(=O)N3CCOCC3)CC2C1 (stereo not shown) [Example 79, (3-benzoyl-1,2,3,4,4a,5-hexahydropyrazino[1,2-a][1,4]benzodiazepin-6(7H)-yl)(morpholin-4-yl)methanone] | 9.25 µM | 86% |
| O=C(N1CCOCC1)N1Cc2ccccc2N2CCN(c3ncccn3)CC2C1 (stereo not shown) [Example 80, morpholin-4-yl[3-(pyrimidin-2-yl)-1,2,3,4,4a,5-hexahydropyrazino[1,2-a][1,4]benzodiazepin-6(7H)-yl]methanone] | 11.9 µM | 97% |
